Source: publication PMC5845353, “The selective cathepsin K inhibitor MIV-711 attenuates joint pathology in experimental animal models of osteoarthritis” (Journal of Translational Medicine, 2018)
Marks after values point to notes of the source that are not given here.

System: rabbits subjected to anterior cruciate ligament transection (ACLT)
Assay: Rabbit ACLT study, µCT of trabecular bone
Type: in vivo
Excerpt: The animals were acquired following review and approval by the Institutional Animal Care and Use Committee (IACUC) at Numira (Salt Lake City, UT). The protocol was also reviewed and approved by the IACUC at Ibex Preclinical Research Inc. (Logan, UT). Male, New Zealand White rabbits (n = 32) were purchased from the Western Oregon Rabbit Co. (Philomath, OR). The animals were approximately 9 months old, weighed 3.7–4.5 kg at the start of the experiment and were randomized into four treatment groups based on body weight.
Pre-operative butorphanol (0.5–1.0 mg/kg, i.m.) for analgesia and glycopyrrolate (~ 0.1 mg/kg i.m.) were administered up to 15 min prior to induction. Anesthesia was induced by a mixture of ketamine (20–40 mg/kg, i.m.) and xylazine (5–10 mg/kg, i.m.), followed by placement of an endotracheal tube. General anesthesia was maintained with isoflurane. Perioperative cefazolin (40 mg/kg, i.v.) was administered, and […] (0.2 mg/kg, i.v.) was administered to reverse the effects of xylazine after endotracheal intubation was complete. A fentanyl patch (25 µg/h) was placed on a clipped area of the skin to provide post-operative analgesia. An incision of 1.5–2.5 cm was made in the skin over the medial side of the right knee under aseptic conditions. The patella was dislocated laterally and the knee placed in full flexion. The anterior cruciate ligament (ACL) was visualized and transected with an appropriate blade. In sham animals, the ACL was visualized but not transected. The joint was irrigated with sterile saline and closed. The muscle and skin were closed with suture and/or surgical glue. Butorphanol (0.5–1 mg/kg, i.m.) was administered after extubation to provide supplemental analgesia. The animals were then individually housed in stainless steel or plastic cages.
Starting 1 week after sham operation or ACLT, animals were dosed daily for 7 weeks by oral gavage with either MIV-711 (synthesized by Medivir and given as a suspension in 1% Methocel A4C in water) or vehicle (1% Methocel A4C in water) at a dose volume of 4 mL/kg. The four treatment groups (n = 7 in each group) were: (1) sham + vehicle; (2) ACLT + vehicle; (3) ACLT + MIV-711, 30 µmol/kg (low dose) and (4) ACLT + MIV-711, 100 µmol/kg (high dose).
Femora and tibias from all animals were subjected to µCT scanning without and with contrast reagent, to visualize bone and cartilage, respectively. Samples were scanned on a high-resolution, volumetric µCT scanner (μCT40, ScanCo Medical, Zurich, CH). The image data was acquired with the following parameters: 36 μm isotropic voxel resolution at 300 ms exposure time, 2000 views and 1 frame per view. Each sample was scanned twice, once for acquiring bone data and once for soft tissue data. After the bone scans, the knees were stained using hexabrix for contrast-enhanced imaging of the cartilage. The µCT-generated DICOM files were used to analyze the samples and to create volume renderings of the regions of interest (ROI). The raw data files were converted into a file format compatible with the segmentation software VHLab (Numira). VHLab was used for segmenting out the regions of interest (osteophyte, cartilage, and subchondral bone) for the femur and tibia of each sample. A region spanning 9 mm of the articulating surface of the femur and 6.5 mm of the tibia was selected for segmenting out the cartilage and subchondral bone in the anterior–posterior direction. After the segmentation process, the voxel count associated with each of the regions of interest was calculated using VHLab. The voxel count was then multiplied by the cubic voxel resolution to obtain volume measurements for the different ROI. Cartilage thickness was calculated using SCIRun (Scientific Computing and Imaging Institute, University of Utah). The distance from the bone to the outer surface of the articulating cartilage was calculated. An image was generated that translates the distances into a color map for viewing the thickness along the length of the cartilage. […]

[1] = Femur Lateral, high dose 100 µmol/kg
[2] = Femur Lateral, low dose 30 µmol/kg
[3] = Femur Medial, high dose 100 µmol/kg
[4] = Femur Medial, low dose 30 µmol/kg
[5] = Tibia Lateral, high dose 100 µmol/kg
[6] = Tibia Lateral, low dose 30 µmol/kg
[7] = Tibia Medial, high dose 100 µmol/kg
[8] = Tibia Medial, low dose 30 µmol/kg

In the case of C#C[C@@H]1CN(C(=O)[C@H](CC(C)C)NC(=O)c2ccc(-c3nc(N4CCN(C)CC4)sc3F)cc2)[C@@H]2C(=O)CO[C@H]12 [MIV-711], the Bone surface [1] is reported as 101.7 ± 2.9 mm^2, the Bone surface/volume [1] is reported as 18.7 ± 0.8 1/mm and the Connective density [1] is reported as 11.90 ± 1.51 1/mm^3. For the same compound, the Structure model index [1] was 0.63 ± 0.11, the Tissue mineral density [1] was 673.6 ± 7.0 mgHA/ccm and the Trabecular bone volume [1] was 5.5 ± 0.2 mm^3. For the same compound, the Trabecular number [1] was 2.55 ± 0.10 1/mm, the Trabecular separation [1] was 0.40 ± 0.02 mm and the Trabecular thickness [1] was 0.19 ± 0.01 mm. For the same compound, the Bone surface [2] was 101.2 ± 4.3 mm^2, the Bone surface/volume [2] was 19.9 ± 1.3 1/mm and the Connective density [2] was 13.51 ± 1.54 1/mm^3. It also gave a Structure model index [2] of 0.73 ± 0.15, a Tissue mineral density [2] of 669.6 ± 8.4 mgHA/ccm and a Trabecular bone volume [2] of 5.3 ± 0.5 mm^3. The Trabecular number [2] was 2.58 ± 0.16 1/mm, the Trabecular separation [2] was 0.40 ± 0.03 mm and the Trabecular thickness [2] was 0.18 ± 0.01 mm. For the same compound, the Bone surface [3] was 105.2 ± 1.3 mm^2, the Bone surface/volume [3] was 15.1 ± 1.0 1/mm and the Connective density [3] was 9.14 ± 0.63 1/mm^3. It also gave a Structure model index [3] of 0.40 ± 0.07, a Tissue mineral density [3] of 699.1 ± 10.3 mgHA/ccm and a Trabecular bone volume [3] of 7.2 ± 0.5 mm^3. The Trabecular number [3] was 3.71 ± 0.68 1/mm, the Trabecular separation [3] was 0.30 ± 0.03 mm and the Trabecular thickness [3] was 0.22 ± 0.02 mm. The Bone surface [4] was 105.6 ± 3.8 mm^2, the Bone surface/volume [4] was 16.0 ± 1.6 1/mm and the Connective density [4] was 11.42 ± 1.61 1/mm^3. It also gave a Structure model index [4] of 0.48 ± 0.07, a Tissue mineral density [4] of 698.4 ± 15.7 mgHA/ccm and a Trabecular bone volume [4] of 7.0 ± 0.7 mm^3. The Trabecular number [4] was 3.02 ± 0.20 1/mm, the Trabecular separation [4] was 0.34 ± 0.02 mm and the Trabecular thickness [4] was 0.22 ± 0.03 mm. The Bone surface [5] was 152.7 ± 4.1 mm^2, the Bone surface/volume [5] was 14.9 ± 0.5 1/mm and the Connective density [5] was 16.25 ± 2.01 1/mm^3. For the same compound, the Structure model index [5] was 0.42 ± 0.11, the Tissue mineral density [5] was 707.0 ± 6.6 mgHA/ccm and the Trabecular bone volume [5] was 10.3 ± 0.4* mm^3. The Trabecular number [5] was 3.01 ± 0.16 1/mm, the Trabecular separation [5] was 0.34 ± 0.02 mm and the Trabecular thickness [5] was 0.22 ± 0.01 mm. For the same compound, the Bone surface [6] was 153.6 ± 4.1 mm^2, the Bone surface/volume [6] was 16.0 ± 1.2 1/mm and the Connective density [6] was 16.55 ± 1.95 1/mm^3. It also gave a Structure model index [6] of 0.51 ± 0.12, a Tissue mineral density [6] of 700.8 ± 10.6 mgHA/ccm and a Trabecular bone volume [6] of 9.9 ± 0.7 mm^3. The Trabecular number [6] was 2.96 ± 0.15 1/mm, the Trabecular separation [6] was 0.34 ± 0.02 mm and the Trabecular thickness [6] was 0.21 ± 0.01 mm. For the same compound, the Bone surface [7] was 124.9 ± 4.6 mm^2, the Bone surface/volume [7] was 13.2 ± 0.2 1/mm and the Connective density [7] was 8.47 ± 0.69 1/mm^3. The Structure model index [7] was 0.41 ± 0.10, the Tissue mineral density [7] was 726.9 ± 5.5 mgHA/ccm and the Trabecular bone volume [7] was 9.5 ± 0.5 mm^3. The Trabecular number [7] was 2.09 ± 0.15 1/mm, the Trabecular separation [7] was 0.50 ± 0.04 mm and the Trabecular thickness [7] was 0.26 ± 0.00 mm. For the same compound, the Bone surface [8] was 124.9 ± 3.3 mm^2, the Bone surface/volume [8] was 14.6 ± 1.2 1/mm and the Connective density [8] was 9.20 ± 1.08 1/mm^3. It also gave a Structure model index [8] of 0.52 ± 0.16, a Tissue mineral density [8] of 714.1 ± 13.1 mgHA/ccm and a Trabecular bone volume [8] of 8.9 ± 0.7 mm^3. For the same compound, the Trabecular number [8] was 2.05 ± 0.08 1/mm, the Trabecular separation [8] was 0.49 ± 0.02 mm and the Trabecular thickness [8] was 0.25 ± 0.02 mm. For the same compound, the “trabecular bone volume, lateral tibia, difference vs. sham” value (low dose 30 µmol/kg) was -8%.
